# In patent publication US9873724B2, “Pro-angiogenic peptides and peptide conjugates” (Yissum Research Development Company of the Hebrew …, priority 2013, dated 2018):
# Several values for one entry are separate records, joined by “and”; a condition that tells them apart may be missing. Equal entries are not always repeated. Square brackets hold non-standard residues; d marks the D form. * marks the point of attachment. Myristoyl = CCCCCCCCCCCCCC(=O)*; Nle = CCCC[C@H](N)C(=O)O
# Test system: Mice/Balb/c, hind limb ischemia model
# Experiment: Mouse hind limb ischemia/angiogenesis model
# Type: in vivo
# Text: The object of this study was to determine whether administration of the test items, peptides AB-017 (SEQ ID NO: 12) and 725-106 (positive control, SEQ ID NO: 2) can enhance angiogenesis, subsequently inducing clinical and motor function improvement in a hind limb ischemia model. The principle of the test is based on changes in perfusion rate, clinical signs and histological parameters (necrosis) following administration of the test compounds.
# Each tested group included 4-7 mice per group. Intraperitoneal (i.p) injection is the preferred route of administration of the test items in this model and DMSO/PEG is used as vehicle to prepare the test item solution.
# Tested peptides were dissolved in 100% DMSO. Thereafter Polyethylene glycol (PEG) 400 is added to the solution. Sterile water was used to dilute to a final concentration of 0.5% DMSO/10% PEG 400/H2O to result 2 mg/ml. The solution is prepared and divided into marked aliquots and stored at −70° C.
# Species/Strain: Mice/Balb/c male˜8 weeks
# Animals were housed under standard laboratory conditions, air conditioned and filtered (HEPA F6/6) with adequate fresh air supply (31 air changes/hour). Animals were kept in a climate controlled environment. Temperatures range is between 20-24° C. and RH is between 30-70% with 12 hours light and 12 hours dark cycle. Animals were housed in polyethylene cages (7/cage) measuring 35×30×15 cm, with stainless steel top grill facilitating pelleted food and drinking water in plastic bottle; bedding: steam sterilized clean paddy husk. Bedding material is changed along with the cage at least twice a week. Diet: Animals are fed ad libitum a commercial rodent diet (Teklad Certified Global 18% Protein Diet cat #: 106S8216). Animals have free access to drinking water obtained from the municipality supply. Surgical Procedure: Anesthesia: Isoflurane 1.5-3% in a mixture of O2/N2O, under spontaneous respiration. All four limbs of the animal were taped down in order to facilitate the animal for surgery. Both hind legs of the animals are shaved and disinfected. On the operated leg, the right leg in all animals, an incision was made from the inguinal area to the proximity of the knee. The femoral vein/artery/nerve were exposed. The artery is dissected free from the vein, nerve and surrounding fascia. Distal to its bifurcation with the profound femoral artery, using 6-0 silk suture the artery is ligated twice, and thereafter transected between these two points (see prox-A-group model appendix I). The surgical wound is closed with 6-0 silk and the mouse is returned to its cage. The left leg is untreated control in all animals. Exclusion criteria: Only mice, whose mean flux measurement post surgery is […] and ≦50% of the pre surgical measurement, are incorporated into the study. Mice whose mean flux measurement post surgery out of this range were excluded from the study.
# [formula] Drug administration: All animals were dosed by IP administration at a dose volume of 10 ml/kg.
# Tests and Evaluation: Body weight: Body weights were measured prior to surgery, prior to each dosing, and prior to necropsy. Blood flow measurement: Using a Laser Doppler apparatus (Perimed PeriScan PIM II System, Technical manual available at test facility) Blood flow was measured (operated leg & control leg) while the legs are in their natural resting position at the following time points: Before surgery (after shaving) & Post surgery (Day 0); Day 1; Day 8; Day 15; Day 22; and Day 29. Each time point for each mouse consists of three measurements. Blood flow was measured, additionally, in first 10 animals at Pre before shaving. […]
substance,measurement,setting,value
Myr-Gly-Nle-Arg-Pro-Tyr-NH2 (Myristoyl-G[Nle]RPY-NH2; SMILES CCCCCCCCCCCCCC(=O)NCC(=O)N[C@@H](CCCC)C(=O)N[C@@H](CCCNC(=N)N)C(=O)N1CCC[C@H]1C(=O)N[C@@H](Cc1ccc(O)cc1)C(N)=O) [AB-017],"perfusion, leg function and leg necrosis (in words)","20 mg/kg IP twice weekly for 4 weeks, vs vehicle control and 725-106",significant improvement of the ischemic leg
same,Functional evaluation at day 15 (individual mouse),"20 mg/kg IP twice weekly, function score 0 (flexing the toes) to 3 (dragging of foot), one value per mouse, listed as AB-107",3.0 (2×) and 2.0 and 0.0 (4×)
same,"Hind limb ischemia evaluation at day 15, Average","20 mg/kg IP twice weekly, group average of ischemic score",0.7
same,Hind limb ischemia evaluation at day 15 (individual mouse),"20 mg/kg IP twice weekly, ischemic score 0 (absence of necrosis) to 4 (total hind-limb loss), one value per mouse, listed as AB-107",2.0 (2×) and 0.0 (4×) and 1.0
